# Reference: publication PMC4721062, “Oxadiazole-2-oxides may have other functional targets, in addition to SjTGR, through which they cause mortality in Schistosoma japonicum” (Parasites & Vectors, 2016)
# Where two headings read alike, the source gives them in different places.
# What was measured:
# [1] = target: T1, recombinant SjTGR (Schistosoma japonicum, UniProt B5THG7); assay: Inhibition of TrxR activity of recombinant SjTGR (DTNB assay); assay type: biochemical; conditions: 50 nM SjTGR, 1 mM NADPH, 15 min preincubation, DTNB reduction; read-out: IC50 of SjTGR
# T1 sequence (B5THG7 1-596): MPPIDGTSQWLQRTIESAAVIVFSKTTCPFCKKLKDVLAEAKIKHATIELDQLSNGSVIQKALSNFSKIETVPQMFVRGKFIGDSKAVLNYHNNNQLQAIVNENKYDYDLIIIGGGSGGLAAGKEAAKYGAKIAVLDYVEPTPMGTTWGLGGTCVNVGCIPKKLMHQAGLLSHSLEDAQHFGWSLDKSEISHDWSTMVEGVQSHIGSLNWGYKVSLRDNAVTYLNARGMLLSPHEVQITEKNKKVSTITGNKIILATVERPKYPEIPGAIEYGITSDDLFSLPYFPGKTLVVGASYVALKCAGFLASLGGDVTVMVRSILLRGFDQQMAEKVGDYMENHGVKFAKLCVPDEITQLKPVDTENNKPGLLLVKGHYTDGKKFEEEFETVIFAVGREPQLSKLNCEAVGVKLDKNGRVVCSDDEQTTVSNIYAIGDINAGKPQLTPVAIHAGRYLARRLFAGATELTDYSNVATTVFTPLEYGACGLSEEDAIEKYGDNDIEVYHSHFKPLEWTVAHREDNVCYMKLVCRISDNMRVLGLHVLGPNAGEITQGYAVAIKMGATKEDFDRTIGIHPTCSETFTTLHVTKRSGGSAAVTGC
# Experimental: The purified recombinant SjTGR proteins were produced according to the method described by Song et al.. The inhibition of TrxR activity by the recombinant SjTGR was performed as reported by Rai et al.. Briefly, 50 nM SjTGR and 1 mM NADPH were incubated with different concentrations of oxadiazole-2-oxides (2, 4, 6, 10, 20 μM) for 15 min at room temperature. Then, potassium phosphate buffer (pH 7.4) containing 10 mM EDTA, 100 μM NADPH, and 3 mM DTNB was added to start the reaction. The increase of absorbance at 412 nm was monitored during the first 2 min. All assays were done in triplicate.
# 50 nM SjTGR and 1 mM NADPH were incubated with different concentrations of oxadiazole-2-oxides (2, 4, 6, 10, 20 μM) for 15 min at room temperature. Then, potassium phosphate buffer (pH 7.4) containing 10 mM EDTA, 100 μM NADPH, 3 mM DTNB was added to start the reaction. The increase in absorbance at 412 nm was monitored during the first 2 min. All assays were done in triplicate. Results shown are the mean ± SD (n = 3)
# [2] = system: adult S. japonicum; assay: microbe, parasite or virus in culture; assay type: cell-based; conditions: for killing at 100 µM / Killing activity 24hr / Killing activity 48hr / Killing activity 72hr / killing at 25 µM / killing at 50 µM: adult worms
# Description: ICR mice (20–22 g), were obtained from the Shanghai Sub-Center of Experimental Animals, Chinese Academy of Sciences. They were maintained at the Department of Experimental Animals, Jiangsu Institute of Parasitic Diseases. To infect each mouse, its abdominal skin was exposed to 50 S. japonica cercariae. All of the mice were executed to collect S. japonica adult worms, through portal vein perfusion, 35 days post-infection. The adult S. japonica collected were washed with RPMI 1640 medium and then kept in RPMI 1640 medium (pH 7.5) with HEPES 20 mM, penicillin (100 IU/mL), streptomycin ([…]) and 10 % fetal bovine serum. Then, two pairs of adult worms were transferred into each well of a 24-well culture plate, with 2 mL of the same medium. The worms were cultured at 37 °C in a humid atmosphere with 5 % CO2.
# Adult worms were cultured in a 24-well culture plate for 30–60 min at 37 °C, in a humid atmosphere with 5 % CO2. Then, oxadiazole-2-oxides at different concentrations (10, 25, 50, 100 μM) were added. Equal volumes of RPMI 1640 or DMSO were applied as negative controls, while PZQ was applied as a positive control. The adult worm mobility and parasite survival rates were monitored using an inverted phase contrast microscope, at 24, 48 and 72 h. Parasite death was defined as there being no motor activity during 2 min of continuous observation, and morphological and tegumental alterations. All assays were repeated three times.
# ^b Data collected by visual examination of worm movement and shape; n.e. […] The data presented are the average of three independent experiments.
# [3] = system: juvenile S. japonicum; assay: microbe, parasite or virus in culture; assay type: cell-based; conditions: for killing at 2 µM / killing at 5 µM / killing at 50 µM / Killing activity 24hr / Killing activity 48hr / Killing activity 72hr: juvenile worms; for Killing activity 24hr / Killing activity 48hr / Killing activity 72hr: 10 μM
# Experimental: Infected Oncomelania hupensis, provided by the Department of Snail Biology, Jiangsu Institute of Parasitic Diseases, were incubated at 25–28 °C, under illumination, for 2 h to hatch S. japonicum cercariae. The cercariae were collected from the water surface with clean cover glass and placed into a centrifuge tube using pre cooled RPMI 1640. Centrifugation was performed for 1 min at 1500 rpm, and then the steps above were repeated. After centrifugation, the supernatant solution was removed. The cercariae at the bottom were washed twice and resuspended with RPMI 1640. Approximately 20–30 cercariae (1 mL of the resuspension medium) were added to one well in a 24-well culture plate. They were incubated overnight at 37 °C with 5 % CO2. The survival rates and number of tails shed were observed under an inverted microscope. Cercariae that had shed their tails were used as juvenile S. japonicum.
# 20–30 juvenile worms were transferred into each well of a 24-well culture plate, containing 2 mL RPMI 1640 medium, 20 mM HEPES, 100 IU/mL penicillin, […] streptomycin and 10 % fetal bovine serum. Then, oxadiazole-2-oxides (2, 5, 10, and 50 μM), diluted with the RPMI 1640 medium, were added to their allocated wells. The worms in the negative control wells were treated with equal volumes of RPMI 1640 or DMSO and worms treated with AS were observed as positive controls. The juvenile worms’ survival rates were observed under an inverted phase contrast microscope (Leica, Wetzlar, Germany) at 24, 48 and 72 h. Parasite death was defined as an unclear internal structure of the juvenile worms, with incomplete tegument and contents overflowing radially, or unclear internal structure with complete tegument, but having no motor activity during 1 min of continuous observation. All assays were repeated three times.
# ^b Data collected by visual examination of worm movement and shape; % D = The number of worms dead / The total number of worms observed, and worms dead judged by unclear internal structure of juvenile worms with uncompleted tegument, and contents overflowing radially, or unclear internal structure with complete tegument, but having no motor activity during 1 min of continuous observation. The data presented are the average of three independent experiments.
# [4] = Schistosoma japonicum, 24 h, read-out: Killing activity 24hr
# [5] = Schistosoma japonicum, 48 h, read-out: Killing activity 48hr
# [6] = Schistosoma japonicum, 72 h, read-out: Killing activity 72hr
Compound,IC50 [1] [µM],"killing at 100 µM [2, 4] [%]","killing at 100 µM [2, 5] [%]","killing at 100 µM [2, 6] [%]","Killing activity 24hr ([2]; 10 μM, 24 h)","Killing activity 48hr ([2]; 10 μM, 48 h)","Killing activity 72hr ([2]; 10 μM, 72 h)","killing at 2 µM [3, 4] [%]","killing at 2 µM [3, 5] [%]","killing at 2 µM [3, 6] [%]","killing at 5 µM [3, 4] [%]","killing at 5 µM [3, 5] [%]","killing at 5 µM [3, 6] [%]","killing at 50 µM [3, 4] [%]","killing at 50 µM [3, 5] [%]","killing at 50 µM [3, 6] [%]",Killing activity 24hr ([3]; 24 h) [%D],Killing activity 48hr ([3]; 48 h) [%D],Killing activity 72hr ([3]; 72 h) [%D],further results
[O-][n+]1onc(-c2ccc(Br)cc2)c1CO [Compound 4c],8.6,57.1,71.4,71.4,n.e.,n.e.,n.e.,15,20,20,24.5,24.5,26.4,25.8,25.8,51.6,7.1,14.3,17.9,"mortality at 100 µM ([2]; Schistosoma japonicum, read-out: Mortality of adult worms): 57.1 ± 2.3%; Killing activity 24hr ([2]; 25 μM, 24 h): n.e.; Killing activity 48hr ([2]; 25 μM, 48 h): n.e.; Killing activity 72hr ([2]; 25 μM, 72 h): n.e.; Killing activity 24hr ([2]; 50 μM, 24 h): n.e.; Killing activity 48hr ([2]; 50 μM, 48 h): n.e.; Killing activity 72hr ([2]; 50 μM, 72 h): n.e.; mortality at 50 µM ([3]; Schistosoma japonicum, 24 h, read-out: Mortality of juvenile worms): < 30%"
N#Cc1c(-c2ccc(OCCCCBr)cc2)no[n+]1[O-] [Compound 14],15.5,100,100,100,33.3%D,44.4%D,77.8%D,21.6,31.1,35.1,26.4,33.3,38.9,46.4,66.4,80,30.4,69.6,69.6,"mortality at 25 µM ([2]; Schistosoma japonicum, 24 h, read-out: Mortality of adult worms): > 75%; killing at 25 µM ([2]; Schistosoma japonicum, 25 μM, 24 h, read-out: Killing activity 24hr): 75%; killing at 25 µM ([2]; Schistosoma japonicum, 25 μM, 48 h, read-out: Killing activity 48hr): 87.5%; killing at 25 µM ([2]; Schistosoma japonicum, 25 μM, 72 h, read-out: Killing activity 72hr): 100%; killing at 50 µM ([2]; Schistosoma japonicum, 50 μM, 24 h, read-out: Killing activity 24hr): 100%; killing at 50 µM ([2]; Schistosoma japonicum, 50 μM, 48 h, read-out: Killing activity 48hr): 100%; killing at 50 µM ([2]; Schistosoma japonicum, 50 μM, 72 h, read-out: Killing activity 72hr): 100%"
